Assay results published in patent US6906094B2, “1,2,4-tribsubstituted benzenes as inhibitors of 15-lipoxygenase” (Warner-Lambert Company, priority 2000, dated 2005).
pIC50: −log10 of the molar value.

Assays:
[1] = target: T1, rabbit reticulocyte 15-LO (Oryctolagus cuniculus, UniProt P12530); assay: Rabbit Reticulocyte 15-LO Assay (H15LO); type: biochemical; conditions: 2 U rabbit reticulocyte 15-LO, 174 μM linoleic acid, 15 minutes at 4° C., 13-HODE quantitated
T1 construct: 15-LO is obtained from phenylhydrazine-treated rabbits and purified according to the method of Rapoport; from tissue; host or cells: reticulocytes of phenylhydrazine-treated rabbits
T1 sequence (P12530 1-663): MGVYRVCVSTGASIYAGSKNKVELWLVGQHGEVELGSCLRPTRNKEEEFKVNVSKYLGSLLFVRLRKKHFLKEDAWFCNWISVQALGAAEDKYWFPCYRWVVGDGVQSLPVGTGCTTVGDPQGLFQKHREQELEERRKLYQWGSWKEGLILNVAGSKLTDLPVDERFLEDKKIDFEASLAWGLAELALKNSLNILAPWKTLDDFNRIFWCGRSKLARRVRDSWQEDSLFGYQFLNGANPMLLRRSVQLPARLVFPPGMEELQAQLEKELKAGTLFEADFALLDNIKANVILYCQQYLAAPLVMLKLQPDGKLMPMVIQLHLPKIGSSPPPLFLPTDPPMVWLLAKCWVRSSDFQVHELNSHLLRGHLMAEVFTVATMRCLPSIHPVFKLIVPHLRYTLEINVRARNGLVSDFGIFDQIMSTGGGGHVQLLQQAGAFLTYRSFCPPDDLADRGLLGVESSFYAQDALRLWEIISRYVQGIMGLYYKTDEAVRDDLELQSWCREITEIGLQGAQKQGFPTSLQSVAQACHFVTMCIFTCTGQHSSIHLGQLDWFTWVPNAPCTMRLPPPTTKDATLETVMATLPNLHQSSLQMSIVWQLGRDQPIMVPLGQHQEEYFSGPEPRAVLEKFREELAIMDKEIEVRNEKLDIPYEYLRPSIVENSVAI
How it was run: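 Rabbit reticulocyte 15-LO purified from phenylhydrazine-treated rabbits; 2 U enzyme incubated with 174 μM linoleic acid and test compound for 15 min at 4° C in PBS with 0.2% sodium cholate. Reaction stopped with mobile phase and triethyl phosphite; 13-HODE product quantitated by peak area against an authentic 13-HODE standard curve.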

human 15-LO = target: T2, human 15-LO (Homo sapiens, UniProt P16050); assay: Human Lysate 15-LO Assay (HUM15LO); type: biochemical; conditions: recombinant human 15-LO, 174 μM linoleic acid, 15 minutes at 4° C., 13-HODE quantitated
T2 construct: made in house; host or cells: Sf9 insect cells (baculovirus, Bac-to-Bac)
T2 sequence (P16050 1-662): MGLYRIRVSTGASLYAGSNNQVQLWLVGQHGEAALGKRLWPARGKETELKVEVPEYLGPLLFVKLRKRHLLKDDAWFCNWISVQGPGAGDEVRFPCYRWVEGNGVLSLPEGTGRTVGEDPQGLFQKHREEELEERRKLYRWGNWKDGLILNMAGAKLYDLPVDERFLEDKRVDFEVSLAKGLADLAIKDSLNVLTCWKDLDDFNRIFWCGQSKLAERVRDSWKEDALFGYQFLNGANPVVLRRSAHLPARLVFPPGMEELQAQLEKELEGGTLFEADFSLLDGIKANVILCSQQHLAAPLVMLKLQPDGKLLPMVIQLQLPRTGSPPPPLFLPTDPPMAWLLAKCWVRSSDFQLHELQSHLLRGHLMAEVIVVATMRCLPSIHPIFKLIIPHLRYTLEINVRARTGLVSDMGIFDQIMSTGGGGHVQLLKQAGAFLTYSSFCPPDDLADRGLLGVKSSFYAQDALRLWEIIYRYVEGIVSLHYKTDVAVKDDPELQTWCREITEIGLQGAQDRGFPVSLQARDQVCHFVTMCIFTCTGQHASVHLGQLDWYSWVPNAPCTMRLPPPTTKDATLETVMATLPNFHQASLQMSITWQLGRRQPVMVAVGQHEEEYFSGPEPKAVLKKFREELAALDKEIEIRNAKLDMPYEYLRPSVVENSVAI
How it was run: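 Baculovirus-expressed recombinant enzyme incubated with compound and 174 μM linoleic acid in PBS with 0.2% sodium cholate, 15 min at 4° C. 13-HODE product quantitated against an authentic standard curve. Percent inhibition derived relative to a compound-free control reaction.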

Row | melting point | pIC50 [1] | pIC50 (human 15-LO) | SMILES
1 | 178 to 181 °C | 7.36 | 7.27 | CCOCCOC(=O)NS(=O)(=O)Nc1cc(-c2cc3cc(F)c(F)cc3[nH]2)ccc1OC [Example 47, Carbamic Acid, [[[5-(5,6-difluoro-IH-indol-2-yl)-2-methoxyphenyl]-amino]sulfonyl]-, 2-ethoxyethyl ester]
2 | 166 to 168 °C | 8.30 | 7.82 | COc1ccc(-c2cc3cc(F)c(F)cc3[nH]2)cc1NS(=O)(=O)NC(=O)OCCCOCc1ccccc1 [Example 49, Carbamic Acid, [[[5-(5,6-difluoro-IH-indol-2-yl)-2-methoxyphenyl]-amino]sulfonyl]-3-(phenylmethoxy)propyl ester]
3 | 178 to 179 °C | 7.74 | 7.19 | COc1ccc(C(=O)Nc2ccc(F)c(F)c2)cc1NS(=O)(=O)NC(=O)OCCCOCc1ccccc1 [Example 50, Carbamic Acid, [[[5-[[(3,4-difluorophenyl)amino]carbonyl]-2-methoxyphenyl]amino]sulfonyl]-, 3-(phenylmethoxy)propyl ester]
4 | 186 to 188 °C | 8.70 | 7.92 | CCCCCCOC(=O)NS(=O)(=O)Nc1cc(-c2cc3cc(F)c(F)cc3[nH]2)ccc1OC [Example 51, Carbamic Acid, [[[5-(5,6-difluoro-IH-indo-2yl)-methoxyphenyl]amino]-sulfonyl]-hexyl ester]
5 | 175 to 178 °C | 8.30 | 7.41 | CCCCCCOC(=O)NS(=O)(=O)Nc1cc(C(=O)Nc2ccc(F)c(F)c2)ccc1OC [Example 52, Carbamic Acid, [[[5-[[(3,4-difluorophenyl)amino]carbonyl]-2methoxyphenyl]amino]sulfonyl]-, Hexyl ester]
6 | 177 to 180 °C | 8.00 | 7.92 | COc1ccc(-c2cc3cc(F)c(F)cc3[nH]2)cc1NS(N)(=O)=O [Example 54, Sulfamide, [5-(5,6-difluoro-IH-indol-2-yl)-2-methoxyphenyl]]
7 | 167 to 170 °C | 7.72 | 7.54 | COc1ccc(C(=O)Nc2ccc(F)c(F)c2)cc1NS(N)(=O)=O [Example 55, Benzamide, 3-[(aminosulfonyl)amino]-N-(3,4-difluorophenyl)-4-methoxy]
8 | 193 to 196 °C | 7.89 | 7.41 | COc1ccc(C(=O)Nc2ccc(F)c(F)c2)cc1NS(=O)(=O)NC(=O)Nc1cccc(Cl)c1 [Example 61, Benzamide, 3-[[[[[(3-chlorophenyl)amino]carbonyl]amino]sulfonyl]amino]-N-(3,4-difluorophenyl)-4-methoxy]
